The source of these data is PubChem BioAssay AID330 (DTP/NCI, 2004).

SMILES strings stand for the structures. “And” between values parts separate entries of the source, which are not always exact repeats. Equal entries are not always repeated. Toxic doses and inconclusive results are not listed.

In this assay the test system is P388 leukemia ip, CD2F1 mice, survival T/C. As to the kind of experiment: NCI In Vivo Anticancer Drug Screen. Data for tumor model P388 Leukemia (intraperitoneal) in CD2F1 (CDF1) mice. To be noted: endpoint: median survival time, higher = longer survival. An outline of the steps: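 Mice carrying the transplanted tumor received test compound or vehicle. Survival was recorded in each group, and the value is the treated-group measurement divided by that of the vehicle-treated control group.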

Setting [1] is: dose: 25.0 mg/kg/injection, schedule: Q01DX009 (ip), vehicle: saline with Tween-80.
[2] abbreviates: dose: 50.0 mg/kg/injection, schedule: Q01DX009 (ip), vehicle: saline with Tween-80.
The mark [3] stands for this setting: dose: 100.0 mg/kg/injection, schedule: Q01DX009 (ip), vehicle: saline with Tween-80.
Where [4] appears, read: dose: 60.0 mg/kg/injection, schedule: Q01DX005 (ip), vehicle: saline with Tween-80.
The mark [5] stands for this setting: dose: 120.0 mg/kg/injection, schedule: Q01DX005 (ip), vehicle: saline with Tween-80.
The mark [6] stands for this setting: dose: 240.0 mg/kg/injection, schedule: Q01DX005 (ip), vehicle: saline with Tween-80.
The mark [7] stands for this setting: dose: 50.0 mg/kg/injection, schedule: Q01DX005 (ip), vehicle: Klucel (hydroxypropylcellulose) (HPC).
Setting [8] is: dose: 100.0 mg/kg/injection, schedule: Q01DX005 (ip), vehicle: Klucel (hydroxypropylcellulose) (HPC).
[9] abbreviates: dose: 200.0 mg/kg/injection, schedule: Q01DX005 (ip), vehicle: Klucel (hydroxypropylcellulose) (HPC).
[10] abbreviates: dose: 50.0 mg/kg/injection, schedule: Q01DX009 (ip), vehicle: Klucel (hydroxypropylcellulose) (HPC).
The mark [11] stands for this setting: dose: 50.0 mg/kg/injection, schedule: Q01DX009 (ip), vehicle: saline.
The mark [12] stands for this setting: dose: 100.0 mg/kg/injection, schedule: Q01DX009 (ip), vehicle: saline.

For `C/C(=N\NC(=S)N1CCC(N2CCCCC2)CC1)c1ccccn1`, the T/C is 112 % of control (dose: 6.25 mg/kg/injection, schedule: Q01DX005 (ip), vehicle: saline with Tween-80) and 113 % of control (dose: 12.5 mg/kg/injection, schedule: Q01DX005 (ip), vehicle: saline with Tween-80).
With `Cc1cc(O)c2c(c1)C(=O)c1cc(O)cc(OC3OC(CO)C(O)C(O)C3O)c1C2=O` (configuration not stated), the T/C by setting is: (dose: 5.0 mg/kg/injection, schedule: Q01DX009 (ip), vehicle: saline) 105 % of control; (dose: 10.0 mg/kg/injection, schedule: Q01DX009 (ip), vehicle: saline) 105 % of control; (dose: 20.0 mg/kg/injection, schedule: Q01DX009 (ip), vehicle: saline) 89 % of control.
Regarding `CCOC(=O)CC(C)=N`, the T/C under setting [1] is 112 % of control; the T/C under setting [2] is 99 % of control and 110 % of control and 114 % of control; the T/C under setting [3] was 106 % of control and 107 % of control and 113 % of control; the T/C (dose: 200.0 mg/kg/injection, schedule: Q01DX009 (ip), vehicle: saline with Tween-80) was 103 % of control and 109 % of control and 123 % of control; the T/C (dose: 400.0 mg/kg/injection, schedule: Q01DX009 (ip), vehicle: saline with Tween-80) was 103 % of control and 105 % of control.
As to `CCN1C(=NCCO)NS(=O)(=O)c2ccccc21`, the T/C runs as follows: under setting [4], 95 % of control; under setting [5], 106 % of control; under setting [6], 99 % of control.
With `CC1(C)OC2OCC(N=[N+]=[N-])C(O)C2O1` (configuration not stated), the T/C runs as follows: (dose: 50.0 mg/kg/injection, schedule: Q01DX005 (ip), vehicle: saline with Tween-80) 113 % of control; (dose: 100.0 mg/kg/injection, schedule: Q01DX005 (ip), vehicle: saline with Tween-80) 101 % of control; (dose: 200.0 mg/kg/injection, schedule: Q01DX005 (ip), vehicle: saline with Tween-80) 92 % of control.
On to `Oc1ccc(/C=N/Nc2nnc(N/N=C/c3ccc(O)cc3O)c3ccccc23)c(O)c1`, for which the T/C by setting is: (dose: 3.12 mg/kg/injection, schedule: Q01DX009 (ip), vehicle: saline) 106 % of control; (dose: 3.12 mg/kg/injection, schedule: Q01DX009 (ip), vehicle: suspension in saline) 116 % of control; (dose: 6.25 mg/kg/injection, schedule: Q01DX009 (ip), vehicle: saline) 112 % of control; (dose: 12.5 mg/kg/injection, schedule: Q01DX009 (ip), vehicle: saline) 117 % of control.
On to `O=C(CCSCCC(=O)N/N=C/C(O)C(O)C(O)CO)N/N=C/C(O)C(O)C(O)CO` (configuration not stated), for which the T/C is 103 % of control and 97 % of control under setting [7]; 99 % of control and 94 % of control under setting [8]; 99 % of control and 95 % of control under setting [9].
With `CC[C@@H]1C[C@H]2CN(CCc3c([nH]c4ccccc34)[C@@](C(=O)OC)(c3cc4c(cc3OC)N(C)[C@H]3[C@@](O)(C(=O)OC)[C@H](OC(C)=O)[C@]5(CC)CCCN6CC[C@]43[C@@H]65)C2)C1`, the T/C is 104 % of control (dose: 0.06 mg/kg/injection, schedule: Q01DX009 (ip), vehicle: water); 104 % of control (dose: 0.13 mg/kg/injection, schedule: Q01DX009 (ip), vehicle: water); 105 % of control and 110 % of control (dose: 0.25 mg/kg/injection, schedule: Q01DX009 (ip), vehicle: water); 108 % of control and 118 % of control (dose: 0.5 mg/kg/injection, schedule: Q01DX009 (ip), vehicle: water); 150 % of control (dose: 2.0 mg/kg/injection, schedule: Q01DX009 (ip), vehicle: saline with Tween-80); 159 % of control (dose: 4.0 mg/kg/injection, schedule: Q01DX009 (ip), vehicle: saline with Tween-80).
As to `CCOC(=O)c1ccc(N=Nc2c(O)c(C(=O)OCC)c(O)c3ccccc23)cc1O`, the T/C is 91 % of control (dose: 100.0 mg/kg/injection, schedule: Q01DX001 (ip), vehicle: distilled water + alcohol); 86 % of control (dose: 200.0 mg/kg/injection, schedule: Q01DX001 (ip), vehicle: distilled water + alcohol); 86 % of control (dose: 400.0 mg/kg/injection, schedule: Q01DX001 (ip), vehicle: distilled water + alcohol).
With `C/C=C(/C)C(=O)OC1c2c(C)coc2CC23OC2CCC(C)C13C` (configuration not stated), the T/C reads like this: (dose: 12.5 mg/kg/injection, schedule: Q01DX009 (ip), vehicle: Klucel (hydroxypropylcellulose) (HPC)) 98 % of control; (dose: 25.0 mg/kg/injection, schedule: Q01DX009 (ip), vehicle: Klucel (hydroxypropylcellulose) (HPC)) 105 % of control; under setting [10], 99 % of control.
As for `COc1ccc(-c2csc(C)n2)cc1OC`, the T/C is, setting by setting: (dose: 100.0 mg/kg/injection, schedule: Q04DX003 (ip), vehicle: Klucel (hydroxypropylcellulose) (HPC)) 106 % of control; (dose: 200.0 mg/kg/injection, schedule: Q04DX003 (ip), vehicle: Klucel (hydroxypropylcellulose) (HPC)) 106 % of control; (dose: 400.0 mg/kg/injection, schedule: Q04DX003 (ip), vehicle: Klucel (hydroxypropylcellulose) (HPC)) 103 % of control.
Consider `N#Cc1cc2cc3c4c(c2oc1=O)CCCN4CCC3`, for which the T/C was 95 % of control under setting [7], 94 % of control under setting [8] and 95 % of control under setting [9].
With `Cc1nc2cncnc2n(CCN2CCOCC2)c1=O`, the T/C is, setting by setting: (dose: 60.0 mg/kg/injection, schedule: Q01DX005 (ip), vehicle: Klucel (hydroxypropylcellulose) (HPC)) 98 % of control; (dose: 120.0 mg/kg/injection, schedule: Q01DX005 (ip), vehicle: Klucel (hydroxypropylcellulose) (HPC)) 95 % of control; (dose: 240.0 mg/kg/injection, schedule: Q01DX005 (ip), vehicle: Klucel (hydroxypropylcellulose) (HPC)) 96 % of control.
On to `CN1CCC(OC(=O)Oc2ccccc2)CC1`, for which the T/C by setting is: under setting [11], 105 % of control; under setting [12], 92 % of control; (dose: 200.0 mg/kg/injection, schedule: Q01DX009 (ip), vehicle: saline) 102 % of control.
Consider `COC(=O)C12OCC34C(CC5C(C)=C(O)C(=O)CC5(C)C3C(O)C1O)OC(=O)C(OC(=O)C=C(C)C)C24` (configuration not stated), for which the T/C by setting is: (dose: 0.13 mg/kg/injection, schedule: Q01DX009 (ip), vehicle: saline) 100 % of control; (dose: 0.25 mg/kg/injection, schedule: Q01DX009 (ip), vehicle: saline) 100 % of control; (dose: 0.5 mg/kg/injection, schedule: Q01DX009 (ip), vehicle: saline) 96 % of control; (dose: 2.0 mg/kg/injection, schedule: Q01DX009 (ip), vehicle: saline) 98 % of control; (dose: 4.0 mg/kg/injection, schedule: Q01DX009 (ip), vehicle: saline) 100 % of control; (dose: 125.0 micrograms/kg/injection, schedule: Q01DX009 (ip), vehicle: saline + alcohol) 104 % of control. The T/C is 102 % of control (dose: 250.0 micrograms/kg/injection, schedule: Q01DX009 (ip), vehicle: saline + alcohol); 104 % of control (dose: 500.0 micrograms/kg/injection, schedule: Q01DX009 (ip), vehicle: saline + alcohol); 95 % of control (dose: 1000.0 micrograms/kg/injection, schedule: Q01DX009 (ip), vehicle: saline + alcohol); 93 % of control (dose: 2000.0 micrograms/kg/injection, schedule: Q01DX009 (ip), vehicle: saline + alcohol); 102 % of control (dose: 4000.0 micrograms/kg/injection, schedule: Q01DX009 (ip), vehicle: saline + alcohol).
In the case of `COc1ccc(S(=O)(=O)F)cc1C(=O)O`, the T/C under setting [4] was 114 % of control, the T/C under setting [5] is 112 % of control and the T/C under setting [6] is 104 % of control.
On to `Cc1ccc2c(c1)nc1sc(C)cc(=O)n12`, for which the T/C runs as follows: under setting [10], 97 % of control; (dose: 100.0 mg/kg/injection, schedule: Q01DX009 (ip), vehicle: Klucel (hydroxypropylcellulose) (HPC)) 95 % of control; (dose: 200.0 mg/kg/injection, schedule: Q01DX009 (ip), vehicle: Klucel (hydroxypropylcellulose) (HPC)) 92 % of control.
As to `CCS/C(C#N)=C(/OC)c1ccccc1Cl`, the T/C is 89 % of control under setting [2] and 94 % of control under setting [3].
Regarding `CC(=O)NC(/C=C/c1ccc(Cl)c(Cl)c1)c1cccc(O)c(=O)c1` (configuration not stated), the T/C was 100 % of control (dose: 6.25 mg/kg/injection, schedule: Q01DX009 (ip), vehicle: saline with Tween-80); 99 % of control (dose: 12.5 mg/kg/injection, schedule: Q01DX009 (ip), vehicle: saline with Tween-80); 113 % of control under setting [1]; 119 % of control (dose: 25.0 mg/kg/injection, schedule: Q01DX009 (ip), vehicle: saline); 124 % of control under setting [11]; 98 % of control under setting [12].
